pKd: −log10 of the molar value. “Also recorded” adds a separate entry of the source.
Legend:
lung cancer cells = test: Cell proliferation (CyQuant), lung cancer cells overall; format: cell-based
From the text: (FIG. 5A) Chemical structure of compounds 12, an analogue of 11 lacking the terminal methyl alcohol functional group. (FIG. 5B) Predicted binding pose of compound 12. (FIG. 5C) p-ERK and p-cRaf levels in BHK cells expressing KRAS^G12D treated with indicated concentrations of compound 12 or vehicle. (FIG. 5D) Proliferation profile of lung cancer cells upon treatment with increasing concentration of compound 12, monitored by a CyQuant assay. Data are averages over three independent experiments and error bars represent standard error. (FIG. 5E) GFP fluorescence lifetime from FLIM-FRET using cells expressing GFP-KRAS^G12D alone or together with RFP-cRaf, with or without treatment with 2 μM compound 12.
(§1) Cell proliferation. Potential effect of the ligands on cancer cell proliferation was tested in three lung cancer cells: SKLU-1, H1975 and H522. Cells were plated at ˜1,000 cell per well in a 96-well plate and maintained in full serum media with or without compound at 37° C. for 72 h changing the media with the compound every 24 h. Media with compound was prepared by serial dilution at concentrations indicated. Then cells were washed with PBS and frozen at −80° C. for a minimum of 24 h. Plates were thawed and CyQuant™ dye (in lysis buffer provided in the CyQuant™ cell proliferation assay kit, Invitrogen™) was added, and after a five-minute incubation, fluorescence (excitation: 480 nm emission: 520 nm) was measured with a Tecan Infinite M200 plate reader.

[1] = system: H1975 (KRAS^WT) lung cancer cells; test: Cell proliferation (CyQuant), H1975; format: cell-based; settings: 72 h
Description: as §1

[2] = system: SKLU-1 (KRAS^G12D) lung cancer cells; test: Cell proliferation (CyQuant), SKLU-1; format: cell-based; settings: 72 h
Description: as §1

KRAS^G12V = test: Cell signaling (Western) in BHK cells expressing KRAS G12V; format: cell-based, hamster
Description: Cell signaling. The inhibitory potential of compounds was tested in monoclonal Baby Hamster Kidney (BHK) cell lines stably expressing monomeric green fluorescence protein (mGFP)-tagged KRAS^G12D, K-Ras^G12V and HRAS^G12V. Cells were cultured in Dulbecco's Modified Eagle Medium (DMEM, Hyclone) supplemented with 10% v/v bovine calf serum and incubated with compound or vehicle (DMSO) for 3 h without serum. Cells were then harvested in lysis buffer (50 mM Tris (pH 7.5), 75 mM NaCl, 25 mM NaF, 5 mM MgCl2, 5 mM EGTA, 1 mM dithiothreitol, 100 μM NaVO4, 1% Nonidet P40 plus protease inhibitors) and subjected to Western analysis controlling protein loading by BCA (bicinchoninic acid) assay. Lysates were resolved with Bio-Rad polyacrylamide TGX 10% gel, transferred to polyvinylidene fluoride (PVDF) membrane and immunoblotted using pan-AKT (2920S), GFP (2956S), pAKT^S473 (4060L), p-cRaf^S338 (9427S), p-ERK^T202/Y204 (4370L), ERK1/2 (4695S) or β-actin antibodies (Cell Signaling Technology). IC50 values were calculated with Prism 4-parameter fit.

[3] = system: H522 (KRAS^WT) lung cancer cells; test: Cell proliferation (CyQuant), H522; format: cell-based; settings: 72 h
Description: as §1

[4] = target: KRAS^G12D in the GTP state (Homo sapiens, UniProt P01116, G12D); test: MST binding, GTP-state KRAS G12D
KRAS^G12D in the GTP state, sequence (P01116 1-188 isoform P01116-2 G12D): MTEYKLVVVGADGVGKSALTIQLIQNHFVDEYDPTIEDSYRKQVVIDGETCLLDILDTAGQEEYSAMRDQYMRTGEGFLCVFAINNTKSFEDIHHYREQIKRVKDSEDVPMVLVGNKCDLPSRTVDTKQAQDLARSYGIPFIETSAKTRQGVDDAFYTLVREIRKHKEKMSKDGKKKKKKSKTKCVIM
From the text: FIGS. 1A-1D show representative data for the predicted binding mode and measured affinity of disclosed compound 11 to KRAS. (FIG. 1A) Structure of the catalytic domain of KRAS used for the virtual screening. Lobe1 (residues 1-86) and lobe2 (residues 87-166) are highlighted in different colors, as well as switches 1 (residues 30-40) and 2 (residues 60-75). The location of the target allosteric pocket p1 is indicated. (FIG. 1B) Chemical structure of compound 11. (FIG. 1C) Predicted binding pose of compound 11, with the key residues that make polar or vdW contacts with the ligand labeled. (FIG. 1D) Microscale thermophoresis (MST) experiments indicating direct binding of compound 11 to KRAS, along with dissociation constants (KD) derived from the curves. Changes in fluorescence upon titration of […] KRAS with increasing concentration of compound are shown: KRAS^WT (red), KRAS^G12C (green), KRAS^G12D (purple) and KRAS^Q61M (blue), each bound to the non-hydrolyzable GTP analogue, guanylyl imidodiphosphate (GNP). The same experiments indicated no binding to GDP-bound KRAS^G12D and KRAS^WT as well as Rap1B, which was used as control. […]

Cc1nn2c(N3CCN(CCO)CC3)cc(-c3ccccc3)nc2c1-c1ccccc1 [Compound 11, 2-[4-(8-methyl-3,9-diphenyl-2,6,7-triazabicyclo[4.3.0]nona-2,4,7,9-tetraen-5-yl)piperazin-1-yl]ethanol]
selectivity between KRAS mutant and KRAS^WT lung cancer cells (lung cancer cells): no significant difference | sensitivity of proliferation [1]: sensitive | sensitivity of proliferation [2]: slightly more sensitive; also recorded: especially responsive | effect on p-ERK levels (KRAS^G12V): dose-dependently reduced; also recorded: dose-dependently decreases | effect on p-cRaf levels (KRAS^G12V): dose-dependently reduced; also recorded: dose-dependently decreases | sensitivity of proliferation [3]: sensitive | pKd [4]: 6.15 to 6.40
